Assay results: patent publication EP2103614A1, “Substituted imidazopyrimidine, imidazopyrazine and imidazopyridazine derivatives as melanocortin-4 receptor modulators” (Santhera Pharmaceuticals (Schweiz) AG, priority 2008, dated 2009)
Like-named read-outs stand apart in the source and are kept apart here.

Assays:
[1] = molecular target: T1, hMC-4R (Homo sapiens, UniProt P32245); experiment: Functional assay (membrane based cAMP fluorescence polarization, agonistic activity); format: biochemical; conditions: cAMP produced compared to stimulation with NDP-alpha-MSH; read-out: % activation functional assay
T1 construct: expressed in transfected cells; host or cells: HEK293
T1 sequence (P32245 whole entry): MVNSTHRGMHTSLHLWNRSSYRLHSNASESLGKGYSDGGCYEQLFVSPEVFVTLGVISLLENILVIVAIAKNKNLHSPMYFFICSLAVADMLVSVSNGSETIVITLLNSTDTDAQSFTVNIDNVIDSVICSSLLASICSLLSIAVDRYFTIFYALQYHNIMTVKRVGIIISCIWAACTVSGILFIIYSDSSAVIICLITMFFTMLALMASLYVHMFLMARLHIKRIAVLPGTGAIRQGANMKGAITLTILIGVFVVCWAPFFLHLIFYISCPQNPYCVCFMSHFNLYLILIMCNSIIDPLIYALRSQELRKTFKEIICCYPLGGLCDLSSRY
Description: Agonistic activity of human melanocortin receptors is determined in a homogeneous membrane based assay.
Membrane preparations from HEK293 cells expressing the human melanocortin receptors are added. After a short preincubation period, an appropriate amount of ATP, GTP and the cAMP antibody is added and the plate is further incubated before the fluorescence labeled cAMP conjugate is dispensed. The plate is incubated for 2 h at 4°C before it is read on a fluorescence polarization microplate reader. The amount of cAMP produced as a response to a test compound is compared to the production of cAMP resulting from stimulation with NDP-alpha-MSH.

[2] = molecular target: T1, hMC-4R; experiment: Membrane binding assay (fluorescence polarization, competition with fluorescence labeled NDP-alpha-MSH)
[3] = HEK293 cell membrane preparations expressing human melanocortin receptors, 5 h at room temperature, read-out: hMC-4R binding assay IC50/µM

SMILES	Emax [1] [%]	IC50 [2, 3] [µM]	IC50 [2] [µM]
CC(C)CCN(CCC(C)C)C(=O)c1cn2c(CCCN3CCCC3)c(-c3ccc(C(N)=O)cc3)nc2cn1 [Example 9]	0	0.048	–
CC(C)CCN(CCC(C)C)C(=O)c1ccc2nc(-c3ccc4c(c3)OCCO4)c(CCCN)n2n1 [Example 2]	0	–	1.1
CC(C)CCN(CCC(C)C)C(=O)c1cn2c(CCCN(C)C)c(-c3ccc(C#N)cc3)nc2cn1 [Example 8]	0	0.19	–
CC(C)CCN(CCC(C)C)C(=O)c1cn2c(CCCN3CCCC3)c(-c3ccc(C#N)cc3)nc2cn1 [Example 7]	0	–	0.02
COc1ccc(Nc2nc3ccc(C(=O)N(CCC(C)C)CCC(C)C)nn3c2CCCN)cc1 [Example 1]	0	–	0.49
CC(C)CCN(CCC(C)C)C(=O)c1cn2c(CCCN(C)C)c(-c3ccc(C(N)=O)cc3)nc2cn1 [Example 10]	0	–	0.28
CC(C)CCN(CCC(C)C)C(=O)c1ccc2nc(-c3ccc4c(c3)OCCO4)c(CCCN3CCCCC3)n2n1 [Example 3]	0	0.12	–
CC(C)CCN(CCC(C)C)C(=O)c1ccc2nc(-c3ccc(C#N)cc3)c(CCCN3CCCC3)n2n1 [Example 4]	0	–	0.3
CC(C)CCN(CCC(C)C)C(=O)c1cnc2nc(-c3ccc(C#N)cc3)c(CCCN3CCCC3)n2c1 [Example 5]	0	–	0.18
CC(C)CCN(CCC(C)C)C(=O)c1cnc2nc(-c3ccc(C#N)cc3)c(CCCN(C)C)n2c1 [Example 6]	0	–	1
